This passage reports IC50 results from patent publication US9416126B2, “Compounds inhibiting leucine-rich repeat kinase enzyme activity” (Merck Sharp & Dohme Corp., priority 2013, dated 2016).

Chain of LRRK2(G2019S mutation, GST-LRRK2(amino acids 970-2527)) (Q5S007 970-2527 G2019S): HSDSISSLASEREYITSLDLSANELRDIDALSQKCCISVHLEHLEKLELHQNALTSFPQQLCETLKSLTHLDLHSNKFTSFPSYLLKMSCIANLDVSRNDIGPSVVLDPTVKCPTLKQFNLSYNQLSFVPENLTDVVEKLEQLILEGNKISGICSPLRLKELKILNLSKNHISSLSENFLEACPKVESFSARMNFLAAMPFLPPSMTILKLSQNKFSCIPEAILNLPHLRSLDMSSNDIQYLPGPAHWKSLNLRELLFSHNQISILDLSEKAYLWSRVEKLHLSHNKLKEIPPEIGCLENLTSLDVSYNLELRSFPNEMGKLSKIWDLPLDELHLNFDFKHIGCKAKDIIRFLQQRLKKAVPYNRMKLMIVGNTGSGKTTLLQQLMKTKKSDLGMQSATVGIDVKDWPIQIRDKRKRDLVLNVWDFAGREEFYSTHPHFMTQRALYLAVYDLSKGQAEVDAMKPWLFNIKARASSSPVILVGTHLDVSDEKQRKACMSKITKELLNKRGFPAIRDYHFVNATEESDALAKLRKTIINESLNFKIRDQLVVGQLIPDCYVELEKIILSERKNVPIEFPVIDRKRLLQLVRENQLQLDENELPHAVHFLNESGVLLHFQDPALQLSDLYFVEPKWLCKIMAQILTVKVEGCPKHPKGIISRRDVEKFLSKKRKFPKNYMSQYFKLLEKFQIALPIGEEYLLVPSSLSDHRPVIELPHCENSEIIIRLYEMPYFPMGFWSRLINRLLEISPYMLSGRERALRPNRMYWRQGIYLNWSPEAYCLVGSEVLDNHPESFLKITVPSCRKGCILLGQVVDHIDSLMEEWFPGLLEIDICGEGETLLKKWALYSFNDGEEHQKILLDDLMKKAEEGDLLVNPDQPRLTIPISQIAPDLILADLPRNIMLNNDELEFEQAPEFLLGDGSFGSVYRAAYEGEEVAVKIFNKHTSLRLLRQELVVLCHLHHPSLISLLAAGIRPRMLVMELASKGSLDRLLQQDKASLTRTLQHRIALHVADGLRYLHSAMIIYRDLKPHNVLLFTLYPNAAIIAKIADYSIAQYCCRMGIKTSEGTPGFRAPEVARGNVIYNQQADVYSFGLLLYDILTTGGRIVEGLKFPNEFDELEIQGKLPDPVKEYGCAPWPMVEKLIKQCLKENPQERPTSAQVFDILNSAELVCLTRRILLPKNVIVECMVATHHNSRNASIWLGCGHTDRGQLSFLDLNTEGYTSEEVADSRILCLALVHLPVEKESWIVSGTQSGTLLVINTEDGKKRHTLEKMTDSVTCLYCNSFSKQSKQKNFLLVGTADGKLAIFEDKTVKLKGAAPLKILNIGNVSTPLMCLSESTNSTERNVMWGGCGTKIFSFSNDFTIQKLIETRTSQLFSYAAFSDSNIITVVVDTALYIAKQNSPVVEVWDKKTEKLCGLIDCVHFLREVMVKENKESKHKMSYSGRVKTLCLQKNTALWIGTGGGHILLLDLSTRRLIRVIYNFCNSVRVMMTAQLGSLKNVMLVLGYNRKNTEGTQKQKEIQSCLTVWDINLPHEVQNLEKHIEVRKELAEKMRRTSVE

This experiment concerns the target LRRK2(G2019S mutation, GST-LRRK2(amino acids 970-2527)) (Homo sapiens (Human), UniProt Q5S007, G2019S). The experiment can be described thus: LRRK2 Km ATP LanthaScreen Assay. The format is biochemical. The following applies: Km ATP (184 μM ATP solution), G2019S LRRK2, mean IC50. The method, then: Unless otherwise noted, all LRRK2 IC50 data presented in tables refers to the LRRK2 Km ATP LanthaScreen™ Assay that is described in the Biological Assay section.
The data presented for the 5 mM and Km ATP LanthaScreen™ Assay represents mean IC50 values based on several test results and may have reasonable. deviations depending on the specific conditions and reagents used. Reagents for the LRRK2 5 mM and Km ATP LanthaScreen™ Assay were purchased from Life Technologies Corporation.
LRRK2 Km ATP LanthaScreen™ Assay
a) 400 nl of a 1:2.15 serial dilution of test compound(98 μM top assay concentration) is spotted via Labcyte Echo to certain wells in a 384 well black, untreated plate. Control wells contain 400 nl of either DMSO or 400 nl of a known inhibitor in DMSO.
b) 10 μl of a 2.5 nM LRRK2(G2019S mutation, GST-LRRK2(amino acids 970-2527)) enzyme solution in 1× assay buffer(50 mM Tris pH 8.5, 10 mM MgCl2, 0.01% Brij-35, 1 mM EGTA, 2 mM DTT, 0.05 mM NaVO4) is added to all wells.
c) A 30 minute room temperature incubation is followed by addition of 10 μl of 800 nM fluorescein labeled LRRKtide peptide substrate and 184 μM ATP solution in 1× assay buffer to all wells.
d) After a 60 minute room temperature incubation, 20 μl of TR-FRET Dilution Buffer(Invitrogen PV3756B) containing 4 nM Tb-labeled anti-phospho LRRKtide antibody and 20 mM EDTA is added to all wells.
e) Plates are incubated at room temperature for 1 hour and read on an Envision™ multi-mode plate reader with LanthaScreen™ settings. Results are analysed using Assay Data Analyzer.
For the compound `Cn1cc(-c2ccc3[nH]nc(-c4cc(N5CCN(C6CC6)CC5)ncn4)c3c2)cn1` [Example A2], the IC50 was 2.62 nM.
In turn, `Cn1cc(-c2ccc3[nH]nc(-c4cc(N5CCOC6(CC6)C5)ncn4)c3c2)cn1` [Example A4] had an IC50 of 2.01 nM.
The figure for `CN1CCN(c2cc(-c3n[nH]c4ccc(-c5cnn(C)c5)cc34)ncn2)CC1=O` [Example A5] is 4.91 nM.
The figure for `CN1CCN(c2cc(-c3n[nH]c4ccc(-c5cnn(C)c5)cc34)ncn2)CC1` [Example A6] is 2.85 nM; for `COCCNc1cc(-c2n[nH]c3ccc(-c4cnn(C)c4)cc23)ncn1` [Example A7] it is 15 nM.
The same measure for `COCCOC1CCN(c2cc(-c3n[nH]c4ccc(-c5cnn(C)c5)cc34)ncn2)CC1` [Example A9]: 1.87 nM; for `Cn1cc(-c2ccc3[nH]nc(-c4cc(N5CC6CCC(C5)O6)ncn4)c3c2)cn1` [Example A10]: 5.18 nM.
`C[C@@H]1CN(c2cc(-c3n[nH]c4ccc(-c5cnn(C)c5)cc34)ncn2)C[C@H](C)O1` [Example A11] yielded an IC50 of 1.4 nM.
The figure for `COC1CCN(c2cc(-c3n[nH]c4ccc(-c5cnn(C)c5)cc34)ncn2)CC1` [Example A12] is 2.04 nM; for `CC(=O)N1CCN(c2cc(-c3n[nH]c4ccc(-c5cnn(C)c5)cc34)ncn2)CC1` [Example A13] it is 3.15 nM; for `Cn1cc(-c2ccc3[nH]nc(-c4cc(N5CCNC(=O)C5)ncn4)c3c2)cn1` [Example A14] it is 2.84 nM.
Take `CC(C)N1CCN(c2cc(-c3n[nH]c4ccc(-c5cnn(C)c5)cc34)ncn2)CC1` [Example A15]: half-maximal inhibition (IC50) required 0.73 nM.
The figure for `CO[C@H]1CN(c2cc(-c3n[nH]c4ccc(OC(C)C)cc34)ncn2)C[C@@H]1O` [Example D1] is 9.9 nM.
The same measure for `CC(C)Oc1ccc2[nH]nc(-c3cc(N4CCOC(C)(C)C4)ncn3)c2c1` [Example D3]: 6.37 nM; for `CC(C)Oc1ccc2[nH]nc(-c3cc(N4CC[S+]([O-])CC4)ncn3)c2c1` [Example D4]: 11.5 nM.
The figure for `CC(C)Oc1ccc2[nH]nc(-c3cc(N4CCC(F)(F)CC4)ncn3)c2c1` [Example D5] is 14.8 nM; for `CC(C)Oc1ccc2[nH]nc(-c3cc(N4CCN(S(C)(=O)=O)CC4)ncn3)c2c1` [Example D7] it is 7.99 nM.
For `CC(C)Oc1ccc2[nH]nc(-c3cc(N4CC5CCC(C4)O5)ncn3)c2c1` [Example D8], the IC50 came out at 29.2 nM.
The same measure for `CC(C)Oc1ccc2[nH]nc(-c3cc(N4CCN(C)C(=O)C4)ncn3)c2c1` [Example D9]: 11.2 nM.
The same measure for `CC(C)Oc1ccc2[nH]nc(-c3cc(N4CCN(C5CC5)CC4)ncn3)c2c1` [Example D10]: 8.28 nM; for `[2H]C1([2H])OC([2H])([2H])C([2H])([2H])N(c2cc(-c3n[nH]c4ccc(OC(C)C)cc34)ncn2)C1([2H])[2H]` [Example D11]: 7.12 nM; for `CC(C)Oc1ccc2[nH]nc(-c3cc(N4CCOC5(CC5)C4)ncn3)c2c1` [Example D12]: 4.04 nM.
`CC(C)Oc1ccc2[nH]nc(-c3cc(N4CCOCC4C)ncn3)c2c1` (centres unmarked) [Example D13] displayed an IC50 of 19.8 nM.
The same measure for `CCCN1CCN(c2cc(-c3n[nH]c4ccc(OC(C)C)cc34)ncn2)CC1` [Example D14]: 8.14 nM; for `COCCNc1cc(-c2n[nH]c3ccc(OC(C)C)cc23)ncn1` [Example D16]: 26.3 nM; for `CC(C)Oc1ccc2[nH]nc(-c3cc(N4CCN(C(C)C)CC4)ncn3)c2c1` [Example D17]: 7.68 nM.
The figure for `CC(C)Oc1ccc2[nH]nc(-c3cc(N4CCNCC4)ncn3)c2c1` [Example D18] is 12.4 nM.
The same measure for `COCCN(C)c1cc(-c2n[nH]c3ccc(OC(C)C)cc23)ncn1` [Example D19]: 66.5 nM; for `CC(C)Oc1ccc2[nH]nc(-c3cc(N4CCO[C@@H](C)C4)ncn3)c2c1` [Example D20]: 21.4 nM; for `COCCN1CCN(c2cc(-c3n[nH]c4ccc(OC(C)C)cc34)ncn2)CC1=O` [Example D21]: 5.59 nM.
On to `CC(C)Oc1ccc2[nH]nc(-c3cc(N4CCN(C(=O)C5CC5)CC4)ncn3)c2c1` [Example D22], for which 4.15 nM corresponded to half-maximal inhibition (IC50).
The figure for `CC(C)Oc1ccc2[nH]nc(-c3cc(N4CCN(S(=O)(=O)C5CC5)CC4)ncn3)c2c1` [Example D23] is 5.51 nM; for `CC(C)Oc1cc2c(-c3cc(N4CCOCC4)ncn3)n[nH]c2cc1F` [Example D26] it is 2.39 nM; for `CC(C)Oc1ccc2[nH]nc(-c3cc(N4C=CSCC4)ncn3)c2c1` [Example D27] it is 6.08 nM.
In the case of `CCN1CCN(c2cc(-c3n[nH]c4ccc(OC(C)C)cc34)ncn2)CC1=O` [Example D28], the IC50 was determined as 5.6 nM.
The same measure for `CC(C)Oc1ccc2[nH]nc(-c3cc(N4CCN(C(C)C)C(=O)C4)ncn3)c2c1` [Example D29]: 5.28 nM; for `CO[C@@H]1CCN(c2cc(-c3n[nH]c4ccc(OC(C)C)cc34)ncn2)C1` [Example D30]: 7.47 nM.
The figure for `CO[C@H]1CCN(c2cc(-c3n[nH]c4ccc(OC(C)C)cc34)ncn2)C1` [Example D31] is 8.79 nM.
The same measure for `CC(C)Oc1ccc2[nH]nc(-c3cc(N4CCN(CCF)C(=O)C4)ncn3)c2c1` [Example D33]: 3.3 nM.
`CCCN1CCN(c2cc(-c3n[nH]c4ccc(OC(C)C)cc34)ncn2)CC1=O` [Example D34] displayed an IC50 of 4.39 nM.
The figure for `CC(C)Oc1cc2c(-c3cc(N4C[C@H](F)[C@@H](F)C4)ncn3)n[nH]c2cc1F` [Example D35] is 4.78 nM; for `CCN1CCN(c2cc(-c3n[nH]c4cc(F)c(OC(C)C)cc34)ncn2)CC1=O` [Example D36] it is 4.16 nM; for `CC(C)Oc1cc2c(-c3cc(N4CCNC(=O)C4)ncn3)n[nH]c2cc1F` [Example D37] it is 2.89 nM.
On to `CC(C)Oc1cc2c(-c3cc(N4CCO[C@@H](C)C4)ncn3)n[nH]c2cc1F` [Example D38], for which the midpoint of inhibition, the IC50, lay at 5.01 nM.
The figure for `CC(C)Oc1cc2c(-c3cc(N4CCO[C@H](C)C4)ncn3)n[nH]c2cc1F` [Example D39] is 2.87 nM.
`CC(C)Oc1cc2c(-c3cc(N4CCOCC4C)ncn3)n[nH]c2cc1F` (centres unmarked) [Example D40] registered an IC50 of 5.54 nM.
The same measure for `CC(C)Oc1ccc2[nH]nc(-c3cc(N4C[C@H](O)[C@@H](O)[C@@H]4C)ncn3)c2c1` [Example D42]: 18.1 nM; for `CC(C)Oc1ccc2[nH]nc(-c3cc(N4CC[C@@H](N)C4)ncn3)c2c1` [Example D43]: 8.78 nM; for `CC(C)Oc1ccc2[nH]nc(-c3cc(N4CC[C@H](N)C4)ncn3)c2c1` [Example D44]: 6.68 nM.
The figure for `CC(C)Oc1cc2c(-c3cc(N4CCN(C5CC5)CC4)ncn3)n[nH]c2cc1F` [Example D45] is 3.99 nM; for `CCN1CCN(c2cc(-c3n[nH]c4cc(F)c(OC(C)C)cc34)ncn2)CC1` [Example D46] it is 2.97 nM; for `CC(C)Oc1cc2c(-c3cc(N4CC5CCC(C4)O5)ncn3)n[nH]c2cc1F` [Example D47] it is 14.6 nM.
The figure for `CC(C)Oc1ccc2[nH]nc(-c3cc(N4CCC5(CCCO5)CC4)ncn3)c2c1` [Example D49] is 4.13 nM; for `CC(C)Oc1cc2c(-c3cc(N4CCN(C)[C@@H](C)C4)ncn3)n[nH]c2cc1F` [Example D50] it is 1.2 nM; for `CC(C)Oc1cc2c(-c3cc(N4CCN(C)[C@H](C)C4)ncn3)n[nH]c2cc1F` [Example D51] it is 1.3 nM.
As for `CC(C)Oc1ccc2[nH]nc(-c3cc(N4C[C@H](N)C[C@@H]4C)ncn3)c2c1` [Example D52], the IC50 amounted to 11.1 nM.
`CCC(=O)N1CCN(c2cc(-c3n[nH]c4ccc(OC(C)C)cc34)ncn2)CC1` [Example D53] had an IC50 of 4.26 nM.
The figure for `CC(C)Oc1ccc2[nH]nc(-c3cc(N4C[C@@H]5C[C@H]4CO5)ncn3)c2c1` [Example D54] is 5.94 nM; for `CC(C)Oc1ccc2[nH]nc(-c3cc(N4C[C@H](O)[C@@H](N)[C@@H]4C)ncn3)c2c1` [Example D55] it is 14.4 nM.
The same measure for `CC(C)Oc1cc2c(-c3cc(N4CCN(c5cnn(C)c5)CC4)ncn3)n[nH]c2cc1F` [Example D56]: 2.19 nM.
The figure for `CC(C)Oc1cc2c(-c3cc(N4C[C@H](O)[C@@H](O)[C@@H]4C)ncn3)n[nH]c2cc1F` [Example D57] is 15.5 nM; for `CC(C)Oc1cc2c(-c3cc(N4CC[C@@H](N)C4)ncn3)n[nH]c2cc1F` [Example D58] it is 7.3 nM.
On to `CC(C)Oc1cc2c(-c3cc(N4CC[C@H](N)C4)ncn3)n[nH]c2cc1F` [Example D59], for which the IC50 came out at 10.4 nM.
The same measure for `CC(C)Oc1cc2c(-c3cc(N4C[C@H](N)C[C@@H]4C)ncn3)n[nH]c2cc1F` [Example D60]: 7.6 nM.
As for `CC(C)Oc1cc2c(-c3cc(N4C[C@H](O)[C@@H](N)[C@@H]4C)ncn3)n[nH]c2cc1F` [Example D61], half-maximal inhibition (IC50) was put at 11.7 nM.
